Here are results for five compounds from PubChem BioAssay (NCI).

Common to all, as to assay: NCI tumour cell line growth inhibition, 48 h
The subject of test [1] is DLD-1 colon.
The subject of test [2] is DMS 273 small cell lung.
The subject of test [3] is KM20L2 colon.
Test [4] relates to P388 leukemia.
Test [5] has as its system P388/ADR leukemia.
In test [6] the test system is SN12K1 renal.
For test [7], the system named is RXF-631 renal.

Each structure is given as a SMILES string.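 96-well plates; 48 h exposure; 5 concentrations. Endpoints by linear interpolation between flanking doses. Not reached: highest tested concentration assigned. Definition used: TGI = concentration required for complete inhibition of growth.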

For `CC(C)C(Nc1c2ccccc2[n+](C)c2ccccc12)C(=O)O` (stereo not given), the TGI in test [1], in test [2] and in test [3] was over 100 µM each time.
Take `Cc1cc(C)c(C2=NO[C@@H]3[C@H]2C(=O)C=C2N(Cc4ccccc4)CCO[C@@]23O)c(C)c1`: the TGI in test [1], in test [2], in test [3], in test [4], in test [5] and in test [6] was over 100 µM throughout.
As for `O=c1c2ccccc2n2nnc3ccc(NCCNCCO)c1c32`, the TGI was found to be 15.4 µM in test [1], 11.1 µM in test [2], 8.29 µM in test [3] and 9.36 µM in test [7].
`Nc1ncnc2c1ncn2C1C(O)C=C(CO)C1O` (stereo not given): the TGI in test [1], in test [2], in test [3] and in test [6] was over 625 µM each time.
For `COc1cc(CNc2nc3c(NC(C)=O)cc(C(F)(F)F)cc3nc2-c2ccccc2)cc(OC)c1OC`, the TGI in test [1], in test [2] and in test [3] was over 100 µM throughout.
